Data taken from patent US20190227053A1, “BIO-ELECTRIC NOSE” (NEW YORK UNIVERSITY, priority 2016, published 2019).

System: olfactory bulb glomeruli
Test: Odor detection by the bio-electronic nose (surface electrode array on the olfactory bulb)
Assay type: in vivo, mouse
Details: FIG. 10
Text: In one embodiment utilizing an organism, such as a mouse, as the chemical detector, the mouse is anesthetized and a craniotomy will be made above one of the OBs. A grid electrode will be positioned on the surface of the bulb. The recording is optimized for different conditions: sub or epi-durally or through a thin layer of skull. Alternatively, a surface electrode can be implanted in conjunction with a probe (such as silicone) inserted to the bulb to obtain signals from higher processing levels, such as the mitral/tufted cells, to improve the filtration of early olfactory responses. Typically, the electrode is divided into several areas (1-4) of 8×8 electrode sites. […]
In one embodiment, a method of interpreting information from the at least one electrode relies on the development of reliable techniques for recording on the surface of the bulb and on algorithms for extracting odor information from these recordings. […] Theta waves, indicative of respiration, are used to verify inhalation in conjunction with readings from the pressure signal. […]
For […], at each session a mouse will be positioned in a head-fixed apparatus similar to that used for anesthetized recordings (FIG. 7). The sniffing/breathing pattern and signals continuously recorded from electrode array, and we will expose the mouse to multiple odor presentations (n˜500). […]

NCCc1ccccc1 [Phenylethylamine]
EC50 (odorant presented to mouse with electrode array on olfactory bulb, read-out: minimum concentration (EC50) detected by the bio-electronic nose): 0.01 nM

CCCCC(=O)OC [Methyl Valerate]
minimum detectable concentration (odorant detected by the bio-electronic nose): 10^−12 M
